Data: US20230295234A1, “ANTIMICROBIAL PEPTIDOMIMETICS” (SPEXIS AG, priority 2020, published 2023)
Bridge positions count the residues as written; N and C are the ends. Square brackets hold non-standard residues; d marks the D form. Peptide text beside a SMILES is read from it. Pro(4R-NH2) = N[C@H]1CN[C@H](C(=O)O)C1; Hyp = O=C(O)[C@@H]1C[C@@H](O)CN1; Gly(N(CH2)3NH2) = NCCCNCC(=O)O; Pen = CC(C)(S)[C@H](N)C(=O)O; dDab = NCC[C@@H](N)C(=O)O; Dab = NCC[C@H](N)C(=O)O; Nlys = NCCCCNCC(=O)O

Legend:
[1] = test system: human red blood cells (hRBC); assay: Hemolysis of human red blood cells; format: cell-based; settings: red cells of human, 1 h
Method: Lyophilized peptides were weighed on a Microbalance (Mettler MT5) and dissolved in sterile water to a final concentration of 1 mg/mL. Stock solutions were kept at +4° C., light protected. The peptides were tested for their hemolytic activity against human red blood cells (hRBC). Fresh hRBC were washed three times with phosphate buffered saline (PBS) and centrifuged for 5 min at 3000×g. Compounds (200 μg/mL) were incubated with 20% hRBC (v/v) for 1 h at 37° C. and shaking at 300 rpm. […] The samples were centrifuged, the supernatants were 8-fold diluted in PBS buffer and the optical densities (OD) were measured at 540 nm. […] Percent hemolysis was calculated as follows: (OD540peptide/OD540H2O)×100%.

[2] = test system: Escherichia coli ATCC 25922; settings: ATCC 25922
Method: (§1) Lyophilized peptides were weighed on a Microbalance (Mettler MT5) and dissolved in sterile water to a final concentration of 1 mg/mL. Stock solutions were kept at +4° C., light protected.
(§2) Colonies of the microorganisms were diluted in saline (0.85%, NaCl) and adjusted using a McFarland reader (bioMérieux SA, Marcy-l'Etoile, France) to 0.5 McFarland standard. Subsequently, the bacterial suspension was diluted in Mueller-Hinton II (MHII, cation adjusted) broth to give approximately 5×10^5 colony forming units (CFU/mL).
(§3) 10^6 colony forming units (CFU)/mL. Aliquots (90 μl) of inoculate were added to 10 μl of water+P-80 (Polysorbate 80, 0.002% final concentration) containing the peptide in serial two-fold dilutions at 10 fold final concentration. The following microorganisms were used to determine antibiotic selectivity of the peptides: Escherichia coli ATCC 25922, Escherichia coli MCR-1 Af 45 and Klebsiella pneumoniae SSI3010.

[3] = test system: Escherichia coli MCR-1 Af 45; settings: MCR-1 Af 45
Method: as §1, §2, §3

[4] = test system: Klebsiella pneumoniae SSI3010; settings: SSI3010
Method: as §1, §2, §3

Row | SMILES | Hemolysis at 0.2 g/L [1] | Escherichia coli ATCC 25922 MIC [2] | Escherichia coli MCR-1 Af 45 MIC [3] | Klebsiella pneumoniae SSI3010 MIC [4]
1 | CCCC[C@H](NC(=O)[C@H](CCCNC(=N)N)NC(=O)[C@H](CCN)NC(=O)[C@@H]1CSSC[C@H](NC(=O)[C@H](Cc2ccc(O)cc2)NC(=O)[C@@H](NC(=O)[C@@H](NC(=O)[C@@H]2CCCN2C(=O)[C@@H](NC(=O)[C@H](N)CCCCN)C(C)C)[C@@H](C)CC)[C@@H](C)CC)C(=O)N[C@@H](CC(N)=O)C(=O)N[C@@H](CCCNC(=N)N)C(=O)N[C@@H](CCCNC(=N)N)C(=O)N[C@@H]([C@@H](C)O)C(=O)N[C@H](CCN)C(=O)N[C@@H](CCCCN)C(=O)N1)C(=O)O [Example 1] (HELM PEPTIDE1{[dK].V.P.I.I.Y.C.N.R.R.T.[NCC[C@@H](N[*:1])C(=O)[*:2]].K.C.[Dab].R.[Nle]}$PEPTIDE1,PEPTIDE1,7:R3-14:R3$$$V2.0) | 0% | 0.0625 µg/mL | 0.0625 µg/mL | 0.125 µg/mL
2 | CCCC[C@H](NC(=O)[C@H](CCCNC(=N)N)NC(=O)[C@H](CCN)NC(=O)[C@@H]1CSSC(C)(C)[C@H](NC(=O)[C@H](Cc2ccc(O)cc2)NC(=O)[C@@H](NC(=O)[C@@H](NC(=O)[C@@H]2CCCN2C(=O)[C@@H](NC(=O)[C@@H]2CCCN2)C(C)C)[C@@H](C)CC)[C@@H](C)CC)C(=O)N[C@@H](CC(N)=O)C(=O)N[C@@H](CCCNC(=N)N)C(=O)N[C@@H](CCN)C(=O)N[C@@H]([C@@H](C)O)C(=O)N[C@H](CCN)C(=O)N[C@@H](CCCCN)C(=O)N1)C(=O)O [Example 2, Pro-Val-Pro-Ile-Ile-Tyr-Pen-Asn-Arg-Dab-Thr-^DDab-Lys-Cys-Dab-Arg-Nle] (HELM PEPTIDE1{P.V.P.I.I.Y.[Pen].N.R.[Dab].T.[NCC[C@@H](N[*:1])C(=O)[*:2]].K.C.[Dab].R.[Nle]}$PEPTIDE1,PEPTIDE1,7:R3-14:R3$$$V2.0) | 0% | 0.0625 µg/mL | 0.0625 µg/mL | 0.25 µg/mL
3 | CCCC[C@H](NC(=O)[C@H](CCCNC(=N)N)NC(=O)[C@H](CCC(N)=O)NC(=O)[C@@H]1CSSC(C)(C)[C@H](NC(=O)[C@H](Cc2ccc(O)cc2)NC(=O)[C@@H](NC(=O)[C@@H](NC(=O)[C@@H]2C[C@@H](N)CN2C(=O)[C@@H](NC(=O)[C@@H]2CCCN2)C(C)C)[C@@H](C)CC)[C@@H](C)CC)C(=O)N[C@@H](CC(N)=O)C(=O)N[C@@H](CCCNC(=N)N)C(=O)N[C@@H](CCN)C(=O)N[C@@H]([C@@H](C)O)C(=O)N[C@H](CCN)C(=O)N[C@@H](CCCCN)C(=O)N1)C(=O)O [Example 3, Pro-Val-Pro((4R)NH2)-Ile-Ile-Tyr-Pen-Asn-Arg-Dab-Thr-^DDab-Lys-Cys-Gln-Arg-Nle] (HELM PEPTIDE1{P.V.[N[C@@H]1C[C@@H](C(=O)[*:2])N([*:1])C1].I.I.Y.[Pen].N.R.[Dab].T.[NCC[C@@H](N[*:1])C(=O)[*:2]].K.C.Q.R.[Nle]}$PEPTIDE1,PEPTIDE1,7:R3-14:R3$$$V2.0) | 0% | 0.125 µg/mL | 0.25 µg/mL | 0.25 µg/mL
4 | CCCC[C@H](NC(=O)[C@H](CCCNC(=N)N)NC(=O)[C@H](CCN)NC(=O)[C@@H]1CSSC(C)(C)[C@H](NC(=O)[C@H](Cc2ccc(O)cc2)NC(=O)[C@@H](NC(=O)[C@@H](NC(=O)[C@@H]2CCCN2C(=O)[C@@H](NC(=O)[C@@H]2C[C@@H](N)CN2)C(C)C)[C@@H](C)CC)[C@@H](C)CC)C(=O)N[C@@H](CC(N)=O)C(=O)N[C@@H](CCCNC(=N)N)C(=O)N[C@@H](CCN)C(=O)N[C@@H]([C@@H](C)O)C(=O)N[C@H](CCN)C(=O)N[C@@H](CCCCN)C(=O)N1)C(=O)O [Example 4, Pro((4R)NH2)-Val-Pro-Ile-Ile-Tyr-Pen-Asn-Arg-Dab-Thr-^DDab-Lys-Cys-Dab-Arg-Nle] (HELM PEPTIDE1{[N[C@H]1CN[C@H](C(=O)[*:2])C1].V.P.I.I.Y.[Pen].N.R.[Dab].T.[NCC[C@@H](N[*:1])C(=O)[*:2]].K.C.[Dab].R.[Nle]}$PEPTIDE1,PEPTIDE1,7:R3-14:R3$$$V2.0) | 0% | 0.125 µg/mL | 0.125 µg/mL | 0.125 µg/mL
5 | CC[C@H](C)[C@H](NC(=O)[C@@H]1C[C@@H](O)CN1C(=O)[C@@H](NC(=O)[C@@H]1C[C@@H](N)CN1C(=O)CNCCCN)C(C)C)C(=O)N[C@H](C(=O)N[C@@H](Cc1ccc(O)cc1)C(=O)N[C@@H]1C(=O)N[C@@H](CC(N)=O)C(=O)N[C@@H](CCCNC(=N)N)C(=O)N[C@@H](CCN)C(=O)N[C@@H]([C@@H](C)O)C(=O)N[C@H](CCN)C(=O)N[C@@H](CCCCN)C(=O)N[C@H](C(=O)N[C@@H](CCN)C(=O)N[C@@H](CCCNC(=N)N)C(=O)N[C@@H](Cc2ccc(O)cc2)C(=O)O)CSSC1(C)C)[C@@H](C)O [Example 51, Norn-Pro((4R)NH2)-Val-Hyp-Ile-Thr-Tyr-Pen-Asn-Arg-Dab-Thr-^DDab-Lys-Cys-Dab-Arg-Tyr] (H-[Gly(N(CH2)3NH2)][Pro(4R-NH2)]V[Hyp]ITY[Pen]NR[Dab]T[dDab]KC[Dab]RY-OH; disulfide 8-15) | 0% | 0.0625 µg/mL |  | 0.25 µg/mL
6 | CC[C@H](C)[C@H](NC(=O)[C@@H]1C[C@@H](O)CN1C(=O)[C@@H](NC(=O)[C@@H]1C[C@@H](N)CN1C(=O)CNCCCCN)C(C)C)C(=O)N[C@H](C(=O)N[C@@H](Cc1ccc(O)cc1)C(=O)N[C@@H]1C(=O)N[C@@H](CC(N)=O)C(=O)N[C@@H](CCCNC(=N)N)C(=O)N[C@@H](CCN)C(=O)N[C@@H]([C@@H](C)O)C(=O)N[C@H](CCN)C(=O)N[C@@H](CCCCN)C(=O)N[C@H](C(=O)N[C@@H](CCN)C(=O)N[C@@H](CCCNC(=N)N)C(=O)N[C@@H](Cc2ccc(O)cc2)C(=O)O)CSSC1(C)C)[C@@H](C)O [Example 52, Nlys-Pro((4R)NH2)-Val-Hyp-Ile-Thr-Tyr-Pen-Asn-Arg-Dab-Thr-^DDab-Lys-Cys-Dab-Arg-Tyr] (H-[Nlys][Pro(4R-NH2)]V[Hyp]ITY[Pen]NR[Dab]T[dDab]KC[Dab]RY-OH; disulfide 8-15) | 0% | 0.0625 µg/mL |  | 0.125 µg/mL
7 | CCCC[C@H](NC(=O)[C@H](CCCNC(=N)N)NC(=O)[C@H](CCN)NC(=O)[C@@H]1CSSC[C@H](NC(=O)[C@H](Cc2ccc(O)cc2)NC(=O)[C@@H](NC(=O)[C@@H](NC(=O)[C@@H]2C[C@@H](O)CN2C(=O)[C@@H](NC(=O)[C@@H]2C[C@@H](O)CN2C(=O)[C@H](CCCCN)NC(=O)[C@@H](N)CCCCN)C(C)C)[C@@H](C)CC)[C@@H](C)CC)C(=O)N[C@@H](CC(N)=O)C(=O)N[C@@H](CCCNC(=N)N)C(=O)N[C@@H](CCN)C(=O)N[C@@H]([C@@H](C)O)C(=O)N[C@H](CCN)C(=O)N[C@@H](CCCCN)C(=O)N1)C(=O)O [Example 78, Lys-Lys-Hyp-Val-Hyp-Ile-Ile-Tyr-Cys-Asn-Arg-Dab-Thr-^DDab-Lys-Cys-Dab-Arg-Nle] (HELM PEPTIDE1{K.K.[Hyp].V.[Hyp].I.I.Y.C.N.R.[Dab].T.[NCC[C@@H](N[*:1])C(=O)[*:2]].K.C.[Dab].R.[Nle]}$PEPTIDE1,PEPTIDE1,9:R3-16:R3$$$V2.0) | 0% | 0.125 µg/mL |  | 0.125 µg/mL
8 | CC[C@H](C)[C@H](NC(=O)[C@@H]1C[C@@H](O)CN1C(=O)[C@@H](NC(=O)[C@@H]1C[C@@H](N)CN1C(=O)[C@H](CCCCN)NC(=O)[C@@H](N)CCCCN)C(C)C)C(=O)N[C@H](C(=O)N[C@@H](Cc1ccc(O)cc1)C(=O)N[C@@H]1C(=O)N[C@@H](CC(N)=O)C(=O)N[C@@H](CCCNC(=N)N)C(=O)N[C@@H](CCN)C(=O)N[C@@H]([C@@H](C)O)C(=O)N[C@H](CCN)C(=O)N[C@@H](CCCCN)C(=O)N[C@H](C(=O)N[C@@H](CCN)C(=O)N[C@@H](CCCNC(=N)N)C(=O)N[C@@H](Cc2ccc(O)cc2)C(=O)O)CSSC1(C)C)[C@@H](C)O [Example 127, Lys-Lys-Pro((4R)NH2)-Val-Hyp-Ile-Thr-Tyr-Pen-Asn-Arg-Dab-Thr-^DDab-Lys-Cys-Dab-Arg-Tyr] (HELM PEPTIDE1{K.K.[N[C@@H]1C[C@@H](C(=O)[*:2])N([*:1])C1].V.[Hyp].I.T.Y.[Pen].N.R.[Dab].T.[NCC[C@@H](N[*:1])C(=O)[*:2]].K.C.[Dab].R.Y}$PEPTIDE1,PEPTIDE1,9:R3-16:R3$$$V2.0; N-terminus and C-terminus assumed) | 0% | 0.0625 µg/mL |  | 0.0625 µg/mL
